Values quoted from earlier work in US20170326166A1, “COMPOSITIONS AND METHODS FOR TREATING PITUITARY TUMORS” (University of Virginia Patent Foundation, priority 2014, published 2017).

How the values were obtained:
cancer cells [1] = conditions: in cancer cells; trapped in the cytosol
cancer cells [2] = conditions: cancer cells compared to their normal counterpart cells or other normal cells

intracellular half-life (cancer cells [1])	SMILES	accumulation in cells (cancer cells [2])
approximately 50 minutes	O=CC[C@@H](O)[C@H](O)[C@H](O)COP(=O)(O)O [2-deoxyglucose 6-phosphate]	–
–	O=CC[C@@H](O)[C@H](O)[C@H](O)CO [2DG, 2-Deoxy-D-glucose]	accumulates predominantly in cancer cells
